Test results as given in the NIST ThermoML archive (doi:10.1021/je201009c).

Test: refractive index (Na D-line) (dimensionless); xn = mol fraction of the nth substance listed
Details: 100.8 kPa, Liquid, Standard Abbe refractometry

OCc1ccccc1 [benzenemethanol] + CCO
refractive index
Details	293.15 K	303.15 K	313.15 K	323.15 K
x2 = 0	1.54049	1.53635	1.53215	1.52796
x2 = 0.05	1.53607	1.53175	1.52743	1.52308
x2 = 0.1	1.53119	1.52681	1.5225	1.51807
x2 = 0.1504	1.52584	1.5215	1.51718	1.51273
x2 = 0.1999	1.52041	1.51591	1.51156	1.50721
x2 = 0.2502	1.51444	1.51002	1.5056	1.50123
x2 = 0.3003	1.50804	1.50367	1.49935	1.49494
x2 = 0.3499	1.50154	1.49716	1.49265	1.48825
x2 = 0.3998	1.49454	1.49014	1.48568	1.48127
x2 = 0.45	1.48707	1.4826	1.47818	1.47378
x2 = 0.5001	1.4791	1.47469	1.4703	1.46589
x2 = 0.55	1.47074	1.46632	1.46191	1.45755
x2 = 0.5999	1.46176	1.45731	1.45296	1.44855
x2 = 0.65	1.4522	1.4477	1.44333	1.43892
x2 = 0.6997	1.44199	1.43754	1.43309	1.4287
x2 = 0.75	1.43095	1.42651	1.42212	1.41775
x2 = 0.7999	1.41922	1.41479	1.4104	1.40607
x2 = 0.8496	1.40661	1.40202	1.39761	1.39329
x2 = 0.8998	1.39275	1.38825	1.38389	1.37963
x2 = 0.95	1.37776	1.37331	1.36905	1.36475
